Tests used:
Test in all cases: Test E preemergence
Type in all cases: in vivo
Details in all cases: scale 0 to 100
[1] = system: yellow nutsedge (Cyperus esculentus)
From the text: (§1) Seeds of plant species selected from corn (Zea mays), soybean (Glycine max), velvetleaf (Abutilon theophrasti), cocklebur (common cocklebur, Xanthium strumarium), lambsquarters (Chenopodium album), wild poinsettia (Euphorbia heterophylla), palmer pigweed (Amaranthus palmeri), waterhemp (common waterhemp, Amaranthus rudis), surinam grass (Brachiaria decumbens), large (Lg) crabgrass (Digitaria sanguinalis), Brazilian crabgrass (Digitaria horizontalis), fall panicum (Panicum dichotomiflorum), giant foxtail (Setaria faberii), green foxtail (Setaria viridis), goosegrass (Eleusine indica), johnsongrass (Sorghum halepense), ragweed (common ragweed, Ambrosia elatior), barnyardgrass (Echinochloa crus-galli), sandbur (southern sandbur, Cenchrus echinatus), arrowleaf sida (Sida rhombifolia), Italian ryegrass (Lolium multiflorum), dayflower (Virginia (VA) dayflower, Commelina virginica), field bindweed (Convolvulus arvensis), morningglory (Ipomoea coccinea), nightshade (eastern black nightshade, Solanum ptycanthum), kochia (Kochia scoparia), yellow nutsedge (Cyperus esculentus), horseweed (Conyza canadensis), and hairy beggarticks (Bidens pilosa), were planted into a silt loam soil and treated preemergence with test chemicals formulated in a non-phytotoxic solvent mixture which included a surfactant.
(§2) At the same time, plants from these crop and weed species and also waterhemp_RES1, (ALS & Triazine resistant common waterhemp, Amaranthus rudis), and waterhemp_RES2, (ALS & HPPD resistant common waterhemp, Amaranthus rudis) were planted in pots containing Redi-Earth® planting medium (Scotts Company, 14111 Scottslawn Road, Marysville, Ohio 43041) comprising spaghnum peat moss, vermiculite, wetting agent and starter nutrients were treated with postemergence applications of test chemicals formulated in the same manner. Plants ranged in height from 2 to 18 cm for postemergence treatments (1- to 4-leaf stage). Treated plants and controls were maintained in a greenhouse for 14 to 21 days, after which time all species were compared to controls and visually evaluated. Plant response ratings, summarized in Table E, are based on a scale of 0 to 100 where 0 is no effect and 100 is complete control. A dash (-) response means no test result.

[2] = system: fall panicum (Panicum dichotomiflorum)
From the text: as §1, §2

[3] = system: giant foxtail (Setaria faberii)
From the text: as §1, §2

[4] = system: sandbur (southern sandbur, Cenchrus echinatus)
From the text: as §1, §2

[5] = system: green foxtail (Setaria viridis)
From the text: as §1, §2

[6] = system: velvetleaf (Abutilon theophrasti)
From the text: as §1, §2

[7] = system: arrowleaf sida (Sida rhombifolia)
From the text: as §1, §2

[8] = system: goosegrass (Eleusine indica)
From the text: as §1, §2

[9] = system: large (Lg) crabgrass (Digitaria sanguinalis)
From the text: as §1, §2

[10] = system: hairy beggarticks (Bidens pilosa)
From the text: as §1, §2

[11] = system: waterhemp (common waterhemp, Amaranthus rudis)
From the text: as §1, §2

[12] = system: Surinam grass (Brachiaria decumbens)
From the text: as §1, §2

[13] = system: Italian ryegrass (Lolium multiflorum)
From the text: as §1, §2

soybean (Glycine max) = system: soybean (Glycine max)
From the text: as §1, §2

[14] = system: lambsquarters (Chenopodium album)
From the text: as §1, §2

[15] = system: palmer pigweed (Amaranthus palmeri)
From the text: as §1, §2

[16] = system: ragweed (common ragweed, Ambrosia elatior)
From the text: as §1, §2

kochia (Kochia scoparia) = system: kochia (Kochia scoparia)
From the text: as §1, §2

[17] = system: nightshade (eastern black nightshade, Solanum ptycanthum)
From the text: as §1, §2

[18] = system: Brazilian crabgrass (Digitaria horizontalis)
From the text: as §1, §2

[19] = system: barnyardgrass (Echinochloa crus-galli)
From the text: as §1, §2

Fc1cccc(Oc2ncc(Cl)cn2)c1Oc1ncc(C(F)(F)F)cn1 [Compound 43, 5-chloro-2-[5-fluoro-6-[[5-(trifluoromethyl)-2-pyrimidinyl]oxy]phenoxy]pyrimidine]
75: Plant response rating, Pigweed, Palmer ([15]; 31 g ai/ha)
80: Plant response rating, Surinam Grass ([12]; 125 g ai/ha)
0: Plant response rating, Nutsedge, Yellow ([1]; 31 g ai/ha) | Plant response rating, Beggarticks ([10]; 31 g ai/ha) | Plant response rating, Beggarticks ([10]; 125 g ai/ha)
85: Plant response rating, Foxtail, Giant ([3]; 31 g ai/ha) | Plant response rating, Ragweed ([16]; 125 g ai/ha)
95: Plant response rating, Panicum, Fall ([2]; 31 g ai/ha) | Plant response rating, Lambsquarters ([14]; 31 g ai/ha) | Plant response rating, Crabgrass, Brazil ([18]; 31 g ai/ha)
20: Plant response rating, Barnyardgrass ([19]; 31 g ai/ha)
98: Plant response rating, Crabgrass, Large ([9]; 31 g ai/ha) | Plant response rating, Ryegrass, Italian ([13]; 125 g ai/ha) | Plant response rating, Kochia (kochia (Kochia scoparia); 31 g ai/ha) | Plant response rating, Nightshade ([17]; 31 g ai/ha)
70: Plant response rating, Foxtail, Green ([5]; 31 g ai/ha) | Plant response rating, Velvetleaf ([6]; 31 g ai/ha)
15: Plant response rating, Sandbur ([4]; 31 g ai/ha)
50: Plant response rating, Goosegrass ([8]; 31 g ai/ha)
30: Plant response rating, Soybean (soybean (Glycine max); 31 g ai/ha)
90: Plant response rating, Waterhemp ([11]; 31 g ai/ha) | Plant response rating, Pigweed, Palmer ([15]; 125 g ai/ha)
40: Plant response rating, Ryegrass, Italian ([13]; 31 g ai/ha)
100: Plant response rating, Panicum, Fall ([2]; 125 g ai/ha) | Plant response rating, Foxtail, Giant ([3]; 125 g ai/ha) | Plant response rating, Sandbur ([4]; 125 g ai/ha) | Plant response rating, Foxtail, Green ([5]; 125 g ai/ha) | Plant response rating, Velvetleaf ([6]; 125 g ai/ha) | Plant response rating, Arrowleaf Sida ([7]; 31 g ai/ha) | Plant response rating, Arrowleaf Sida ([7]; 125 g ai/ha) | Plant response rating, Goosegrass ([8]; 125 g ai/ha) | Plant response rating, Crabgrass, Large ([9]; 125 g ai/ha) | Plant response rating, Waterhemp ([11]; 125 g ai/ha) | Plant response rating, Lambsquarters ([14]; 125 g ai/ha) | Plant response rating, Kochia (kochia (Kochia scoparia); 125 g ai/ha) | Plant response rating, Nightshade ([17]; 125 g ai/ha) | Plant response rating, Crabgrass, Brazil ([18]; 125 g ai/ha) | Plant response rating, Barnyardgrass ([19]; 125 g ai/ha)
60: Plant response rating, Ragweed ([16]; 31 g ai/ha)
65: Plant response rating, Soybean (soybean (Glycine max); 125 g ai/ha)
25: Plant response rating, Nutsedge, Yellow ([1]; 125 g ai/ha) | Plant response rating, Surinam Grass ([12]; 31 g ai/ha)

Fc1ccc(F)c(Oc2ncc(Cl)cn2)c1Oc1ncc(Cl)cn1 [Compound 34, 2,2′-[(3,6-difluoro-1,2-phenylene)bis(oxy)]bis[5-chloropyrimidine]]
0: Plant response rating, Nutsedge, Yellow ([1]; 16 g ai/ha) | Plant response rating, Nutsedge, Yellow ([1]; 31 g ai/ha) | Plant response rating, Nutsedge, Yellow ([1]; 62 g ai/ha) | Plant response rating, Nutsedge, Yellow ([1]; 125 g ai/ha) | Plant response rating, Foxtail, Giant ([3]; 16 g ai/ha) | Plant response rating, Sandbur ([4]; 16 g ai/ha) | Plant response rating, Sandbur ([4]; 31 g ai/ha) | Plant response rating, Foxtail, Green ([5]; 16 g ai/ha) | Plant response rating, Goosegrass ([8]; 16 g ai/ha) | Plant response rating, Goosegrass ([8]; 31 g ai/ha) | Plant response rating, Crabgrass, Large ([9]; 16 g ai/ha) | Plant response rating, Surinam Grass ([12]; 16 g ai/ha) | Plant response rating, Surinam Grass ([12]; 31 g ai/ha) | Plant response rating, Ryegrass, Italian ([13]; 16 g ai/ha) | Plant response rating, Ryegrass, Italian ([13]; 31 g ai/ha) | Plant response rating, Soybean (soybean (Glycine max); 16 g ai/ha) | Plant response rating, Lambsquarters ([14]; 16 g ai/ha) | Plant response rating, Pigweed, Palmer ([15]; 16 g ai/ha) | Plant response rating, Ragweed ([16]; 16 g ai/ha) | Plant response rating, Ragweed ([16]; 31 g ai/ha) | Plant response rating, Kochia (kochia (Kochia scoparia); 16 g ai/ha) | Plant response rating, Crabgrass, Brazil ([18]; 16 g ai/ha) | Plant response rating, Barnyardgrass ([19]; 16 g ai/ha) | Plant response rating, Barnyardgrass ([19]; 31 g ai/ha)
85: Plant response rating, Foxtail, Giant ([3]; 62 g ai/ha)
70: Plant response rating, Sandbur ([4]; 125 g ai/ha) | Plant response rating, Foxtail, Green ([5]; 125 g ai/ha) | Plant response rating, Beggarticks ([10]; 62 g ai/ha) | Plant response rating, Ryegrass, Italian ([13]; 125 g ai/ha) | Plant response rating, Lambsquarters ([14]; 31 g ai/ha) | Plant response rating, Pigweed, Palmer ([15]; 62 g ai/ha)
50: Plant response rating, Panicum, Fall ([2]; 16 g ai/ha) | Plant response rating, Foxtail, Giant ([3]; 31 g ai/ha) | Plant response rating, Beggarticks ([10]; 16 g ai/ha) | Plant response rating, Pigweed, Palmer ([15]; 31 g ai/ha) | Plant response rating, Nightshade ([17]; 16 g ai/ha) | Plant response rating, Nightshade ([17]; 31 g ai/ha)
95: Plant response rating, Kochia (kochia (Kochia scoparia); 31 g ai/ha) | Plant response rating, Nightshade ([17]; 125 g ai/ha) | Plant response rating, Crabgrass, Brazil ([18]; 62 g ai/ha)
65: Plant response rating, Foxtail, Green ([5]; 62 g ai/ha)
20: Plant response rating, Barnyardgrass ([19]; 62 g ai/ha)
98: Plant response rating, Panicum, Fall ([2]; 62 g ai/ha) | Plant response rating, Arrowleaf Sida ([7]; 62 g ai/ha) | Plant response rating, Crabgrass, Large ([9]; 62 g ai/ha) | Plant response rating, Crabgrass, Large ([9]; 125 g ai/ha) | Plant response rating, Crabgrass, Brazil ([18]; 125 g ai/ha)
10: Plant response rating, Sandbur ([4]; 62 g ai/ha) | Plant response rating, Foxtail, Green ([5]; 31 g ai/ha) | Plant response rating, Surinam Grass ([12]; 125 g ai/ha) | Plant response rating, Soybean (soybean (Glycine max); 31 g ai/ha)
35: Plant response rating, Ryegrass, Italian ([13]; 62 g ai/ha) | Plant response rating, Ragweed ([16]; 125 g ai/ha) | Plant response rating, Crabgrass, Brazil ([18]; 31 g ai/ha)
75: Plant response rating, Beggarticks ([10]; 125 g ai/ha)
100: Plant response rating, Panicum, Fall ([2]; 125 g ai/ha) | Plant response rating, Velvetleaf ([6]; 31 g ai/ha) | Plant response rating, Velvetleaf ([6]; 62 g ai/ha) | Plant response rating, Velvetleaf ([6]; 125 g ai/ha) | Plant response rating, Arrowleaf Sida ([7]; 125 g ai/ha) | Plant response rating, Waterhemp ([11]; 16 g ai/ha) | Plant response rating, Waterhemp ([11]; 31 g ai/ha) | Plant response rating, Waterhemp ([11]; 62 g ai/ha) | Plant response rating, Waterhemp ([11]; 125 g ai/ha) | Plant response rating, Lambsquarters ([14]; 125 g ai/ha) | Plant response rating, Pigweed, Palmer ([15]; 125 g ai/ha) | Plant response rating, Kochia (kochia (Kochia scoparia); 62 g ai/ha) | Plant response rating, Kochia (kochia (Kochia scoparia); 125 g ai/ha)
60: Plant response rating, Arrowleaf Sida ([7]; 16 g ai/ha) | Plant response rating, Beggarticks ([10]; 31 g ai/ha) | Plant response rating, Soybean (soybean (Glycine max); 125 g ai/ha) | Plant response rating, Barnyardgrass ([19]; 125 g ai/ha)
25: Plant response rating, Crabgrass, Large ([9]; 31 g ai/ha) | Plant response rating, Soybean (soybean (Glycine max); 62 g ai/ha) | Plant response rating, Ragweed ([16]; 62 g ai/ha)
30: Plant response rating, Velvetleaf ([6]; 16 g ai/ha)
90: Plant response rating, Lambsquarters ([14]; 62 g ai/ha)
5: Plant response rating, Goosegrass ([8]; 62 g ai/ha)
80: Plant response rating, Panicum, Fall ([2]; 31 g ai/ha) | Plant response rating, Foxtail, Giant ([3]; 125 g ai/ha) | Plant response rating, Arrowleaf Sida ([7]; 31 g ai/ha) | Plant response rating, Goosegrass ([8]; 125 g ai/ha) | Plant response rating, Nightshade ([17]; 62 g ai/ha)

Source: patent US20170190671A1, “BIS(ARYL)CATECHOL DERIVATIVES AS HERBICIDES” (E I DU PONT DE NEMOURS AND COMPANY, priority 2014, published 2017)
